{
  "source": "patent US20210308101A1",
  "about": "“METHODS OF TREATING FIBROMYALGIA” (Aptinyx Inc., priority 2019, published 2021)",
  "format_in_all_cases": "in vivo, human",
  "key": {"[1]": {"system": "subjects with fibromyalgia", "test": "PROMIS Physical Function short form", "excerpt": "As used herein, the “PROMIS Physical Function short form” is Patient Reported Outcomes Measurement Information System Physical Function Short Form. The PROMIS physical function short form version 1.0 12a measures the self-reported performance of physical activities including dexterity, walking or mobility and the ability to complete activities of daily living. All 12 questions are based on a 5-point numerical rating scale/Likert scale ranging from 1 to 5 with different categorical responses. Higher scores represent a better quality of life. The PROMIS physical function is made of the 2 following subdomains: • Walking Subdomain Score • If the question, “Can you walk 25 feet on a level surface (with or without support)?” is answered yes, then 6 questions will be assessed. Otherwise, the Walking Subdomain Score will not be calculated. 4 Questions with Scores Ranging from 1 (Unable to do) to 5 (Without any difficulty): • Are you able to walk on flat ground? • Are you able to walk up and down two steps? • Are you able to run at a fast pace for 2 miles? • Are you able to do yard work like raking leaves, weeding, or pushing a lawn mower? 2 Questions with Scores Ranging from 1 (Cannot do) to 5 (Not at all): • Does your health now limit you in doing strenuous activities such as backpacking, skiing, playing tennis, bicycling, or jogging? • Does your health now limit you in hiking a couple of miles on uneven surfaces, including hills? • Sum of those 6 Questions make up the Walking Subdomain Score Ranging from 6 to 30 • Other Physical Function Subdomain Score 5 Questions with Scores Ranging from 1 (Unable to do) to 5 (Without any difficulty): • Are you able to wash and dry your body? • Are you able to get in and out of bed? • Are you able to bend down and pick up clothing from the floor? • Are you able to push open a heavy door? • Are you able to reach and get down an object (such as a can of soup) from above your head? 1 Question with Scores Ranging from 1 (Cannot do) to 5 (Not at all): • Does your health now limit you in doing eight hours of physical labor? • Sum of those 6 Questions make up the Other Physical Function Subdomain Score Ranging from 6 to 30\nIf at least 3 questions have been answered within an individual subdomain, that subdomain score may be imputed if missing responses are present. […] A total score for PROMIS physical function was not calculated. The PROMIS physical function assessment was collected and analyzed at visits Screening, Day 1, Week 2, Week 4, Week 6, and Follow-up (Week 7). […] Additionally, the treatment group comparisons were analyzed using the paired t-test and nonparametric Wilcoxon signed-rank test. All PROMIS physical function data collected and the calculated subdomain scores at each visit were presented in a subject listing."}, "[2]": {"system": "subjects with fibromyalgia", "test": "Hospital Anxiety and Depression Scale (HADS)", "conditions": "Weeks 4 and 6", "excerpt": "As used herein, “HADS” is Hospital Anxiety and Depression Scale. The HADS is a self-reported screening tool for anxiety and depression in non-psychiatric clinical populations. The scale consists of 14 items (7 each for anxiety and depression), each rated on a 4-point scale ranging from 0 to 3 (i.e. 0=not at all; 3=most of the time). The categorical responses are slightly different for some of the questions, but the numeric scores remained the same from 0 to 3. Responses were based on the relative frequency of symptoms over the preceding week. […] The individual imputed missing scores used the specific subscale mean score and were rounded off to the nearest whole number. If an individual subscale score was missing 4 or more items, then that subscale score was set to missing. A total score adding the anxiety and depression subscale scores for HADS was not calculated. Possible scores range from 0 to 21 for each subscale. […]\nThe HADS assessment was collected and analyzed at visits Screening, Day 1, Week 2, Week 4, Week 6, and Follow-up (Week 7). […] Additionally, the treatment group comparisons were analyzed using the paired t-test and nonparametric Wilcoxon signed-rank test.\nThe 4 interpreted categorical values for each subscale were summarized in a frequency distribution table. All HADS data collected and the calculated subscale scores at each visit were presented in a subject listing."}, "[3]": {"system": "dorsal anterior cingulate cortex Glx", "test": "1H-MRS Glx levels, dorsal anterior cingulate cortex", "excerpt": "As used herein, “^1H-MRS” is Magnetic Resonance Spectroscopy (1H-MRS) or Proton Magnetic Resonance Spectroscopy. Proton magnetic resonance spectroscopy is a noninvasive imaging technique that allows in vivo determination of biochemical parameters within brain tissue. Proton magnetic resonance spectroscopy data were used to collect brain neurotransmitter levels of Glu and combined glutamate+glutamine metabolites (Glx). This method provides metrics amenable to longitudinal studies such as those proposed here. High-resolution anatomical scans can isolate identical brain structures within individuals over time, thus minimizing error that otherwise would occur because of slight differences in voxel location from 1 evaluation to the next. Previous ^1H-MRS studies have utilized this approach to examine changes in the levels of CNS metabolites in test-retest studies of drug effects. […]\nRaw data from each single-voxel spectroscopy sequence underwent manual post-processing using ^1H-MRS software (LCModel; Stephen Provencher, Oakville, Ontario, Canada). […] Glx values were calculated as an absolute concentration using the water signal for normalization or as a ratio to creatine. […]\nThe analysis visit comparisons stated were analyzed using paired t-tests and/or nonparametric Wilcoxon signed-rank tests of Glx levels at each voxel independently in SPSS. […]"}, "[4]": {"conditions": "Week 2 (placebo) to Week 4 (NYX-2925 20 mg)"}, "[5]": {"conditions": "Week 2 (placebo) to Week 6 (NYX-2925 200 mg), not statistically significant"}},
  "note": "“Also recorded” adds a separate entry of the source.",
  "data": [
    {"smiles": "CC(C)C(=O)N1CCC[C@]12CN([C@H](C(N)=O)[C@@H](C)O)C2=O", "note": "[NYX-2925, (2S, 3R)-3-hydroxy-2-((R)-5-isobutyryl-1-oxo-2,5-diazaspiro[3.4]octan-2-yl)butanamide]", "values": [
      {"measurement": "PROMIS Physical Function Other Physical Function Subdomain score, mean change", "setting": "[1]; [4]", "result": "−0.1"},
      {"measurement": "PROMIS Physical Function Walking Subdomain score, mean change", "setting": "[1]; [4]", "result": 0.2},
      {"measurement": "PROMIS Physical Function Other Physical Function Subdomain score, mean change", "setting": "[1]; [5]", "result": 0.4},
      {"measurement": "PROMIS Physical Function Walking Subdomain score, mean change", "setting": "[1]; [5]", "result": 0.5},
      {"measurement": "HADS Total Anxiety score, mean changes from Week 2 (placebo)", "setting": "[2]", "result": "No statistically significant mean changes"},
      {"measurement": "HADS Total Depression score, mean changes from Week 2 (placebo)", "setting": "[2]", "result": "No statistically significant mean changes"},
      {"measurement": "dACC resting Glx (concentrations and ratios to creatine)", "setting": "[3]; NYX-2925 20 mg vs placebo, p<0.05", "result": "statistically significant reductions of Glx levels; also recorded: decreased resting Glx"},
      {"measurement": "dACC mean Glx levels", "setting": "[3]; NYX-2925 200 mg vs placebo", "result": "No significant decrease; also recorded: No effect"}
    ]}
  ]
}
